Patent publication US7683055B2, “Lanthionine-related compounds for the treatment of inflammatory diseases” (Oklahoma Medical Research Foundation, priority 2006, dated 2010)

System: SHSY5Y dopaminergic neuroblastoma cells
Experiment: rotenone toxicity in SHSY5Y cells
Format: cell-based
Details: 30 min pretreatment
Method: FIG. 15. (R)-LKE1 protects SHSY5Y dopaminergic neuroblastoma cells against rotenone toxicity. In this experiment SHSY5Y cultures were treated with (R)-LKE1 for 30 min. prior to addition of rotenone, then assayed for viability at various later time points. The percent change in 24 hour cell viability was measured in the presence and absence of (R)-LKE1 at difference rotenone concentrations. “LKE” refers to (R)-LKE1.
For example, the methods and compounds of present invention are expected to by useful for treating Parkinson's disease in an individual. […] In this experiment SHSY5Y cultures were treated with (R)-LKE1 for 30 min. prior to addition of rotenone, then assayed for viability at various later time points.

Q: For CCOC(=O)[C@@H]1CSCC(C(=O)O)=N1 [(R)-LKE1], which “protection from rotenone toxicity” value is on record?
A: Its value is “protecting SHSY5Y cells from rotenone toxicity”.
